# Reference: patent US11352350B2, “IRAK degraders and uses thereof” (Kymera Therapeutics, Inc., priority 2018, dated 2022)
# Assays:
# IRAK4 [1] = target: T1, IRAK4 (Homo sapiens (Human), UniProt Q9NWZ3); experiment: IRAK4 degradation in human whole blood lymphocyte - flow cytometry; format: cell-based; conditions: read-out: IRAK4 degradation in whole blood lymphocyte-Flow cytometry: Average external Abs IC50
# Method: (§1) Human whole blood IRAK4 degradation flow assay. Whole blood was collected in heparinized tubes and plated on the same day as draw (day 0). Whole blood was aliquoted into deep well plates. Compound plates were prepared and a 10 point, 5-fold dilution was performed with a final DMSO concentration of 0.1%. Compound was added to whole blood deep well plate, sealed and incubated at 37° C., 5% CO2 for 20 hours (for 4 hour treatment, compounds were prepared and added the following day). Following the treatment incubation period (day 1), BD lyse fix (BD #558049) was added to the whole blood plate, placed on plate shaker for 30 seconds and incubated for 10 mins at room temperature. Whole blood was then spun down and washed two times with PBS/0.5% BSA, aspirated to pellet and placed into −80° C. freezer until further processing for flow. On the flow run day, whole blood plates were thawed and samples were transferred to PCR plates. The pre-perm staining cocktail (CD3 Ax488/CD8 BUV805/CD14 BUV395/CD16/56 BV711/CD19 BV785) was added to samples and incubated for 30 minutes at room temperature. Samples were washed two times and permeabilized with Methanol for 10 minutes at 4° C. Samples were washed two times and the post-perm staining cocktail (CD4 PE/IRAK4 Ax647 BD #560315) was added and incubated for 30 minutes at room temperature. Samples were washed two times with PBS/BSA and run on a BD LSRFortessa. Mononuclear cells are gated by SSCH/FSCH and single cells. Monocytes are then gated through CD14 positive gate and lymphocytes are gated through CD14 negative gate. To determine absolute DC50 and max degradation values, MFI values were normalized to DMSO max and 20 hour 10 μM min control. Twenty hour dose curves were calculated using a 4 parameter logistic regression curve fit, no constraints (Top doses were removed if hook effects were observed and the bottom was constrained to 0).
# OCI-LY10 = experiment: CTG Cell Viability Assay - OCI-LY10; format: cell-based, human; conditions: Homo sapiens, OCI-Ly10, 96 h, OCI-LY10, 4 days; read-out: CTG Cell Viability Assay - OCI-LY10: Average external-IC50
# In short: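 OCI-LY10 cells exposed to 9-dose, 1:3 dilutions from 10 μM top (0.2% DMSO) for 4 days at 37° C, 5% CO2. Viability by CellTiter-Glo luminescence; IC50 from three-parameter logistic fit.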
# IRAK4 [2] = target: T1, IRAK4; experiment: IRAK4 MSD degradation in OCI-LY10; format: cell-based
# In short: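 OCI-LY10 cells treated with 8-point 1:3 dilutions (top 1 to 10 μM final) for 4 to 24 h at 37° C. Lysate IRAK4 measured by MSD sandwich immunoassay (2H9 capture, Y279 detection, SULFO-TAG anti-rabbit). DC50 from three-parameter logistic fit.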
# IRAK4 [3] = target: T1, IRAK4; experiment: IRAK4 degradation in human whole blood monocyte - flow cytometry; format: cell-based; conditions: read-out: IRAK4 degradation in whole blood monocyte-Flow cytometry: Average external Abs IC50
# Method: as §1
# TNFα = experiment: Human whole blood LPS TNFα assay; format: cell-based; conditions: 20 h pretreatment, LPS 5 h, read-out: IRAK4 human whole blood LPS TNFa inhibition: Average external-IC50
# Method: Human Whole blood LPS TNFα assay. Whole blood was collected fresh and plated same day into 96 well plates at 180 μL per well. Compound plates were prepared in DMSO as 8-point dose curves in duplicate, starting dose 2 μM, 5-fold. Compounds are added 20 μL into blood for final 200 μL per well. Compound and cells were incubated at 37° C., 5% CO2 for 20 hours. After twenty hours of pretreatment with the compounds, LPS (01 1 1:B4) (Sigma #L2637) was added at 100 ng/ml final concentration and blood incubated an additional five hours at 37° C., 5% CO2. Following assay completion, whole blood plates were spun down at 2000 rpm for 15 minutes at 4° C. 50 μL of plasma was carefully removed and placed into a new 96 well Costar (#3879) plate and stored at −80° C. until further analysis. Meso scale Discovery (MSD) human V-plex assays were used to measure cytokine levels. On day of cytokine analysis, plasma samples were thawed, diluted with V-plex diluent #2, and directly to MSD plates. Assay was further completed per standard manufacturer's protocol. Cytokine data was normalized to LPS stimulated and unstimulated controls. Prism Graphpad was used to generate IC50 using 4 parameter logistic regression curve, free-fit.
# IRAK4 [4] = target: T1, IRAK4; experiment: hPBMC IRAK4 degradation flow assay; format: cell-based; conditions: hPBMC monocyte
# In short: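 Thawed human PBMCs treated with 10-point, 5-fold compound dilutions (0.1% DMSO) at 37° C. for 20 hours or 4 hours. IRAK4 measured by flow MFI in CD14+ monocytes and CD14− lymphocytes, normalized to DMSO and 10 μM 20-hour control; DC50 and max degradation from 4-parameter logistic fit.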
# IL-6 = IL-6 secretion in hPBMC using R848 stimulation; format: cell-based, human; conditions: Homo sapiens, 20 h, hPBMC, R848 as stim, t = 20 h
# [5] = OCI-LY10, 4 hrs, MSD, read-out: IRAK4 MSD degradation in OCI-LY10 at 4 hrs: Average external-Abs DC50
# [6] = OCI-LY10, 24 hrs, MSD, read-out: IRAK4 MSD degradation in OCI-LY10 at 24 hrs: Average external-Abs DC50
# [7] = 20 hr, flow assay, read-out: IRAK4 degradation in hPBMC monocyte at 20 hr: Average external Abs DC50
# [8] = 20 hrs, read-out: IRAK4 degradation in hPBMC monocyte: DC50
# [9] = OCI-LY10, 4 hrs, read-out: IRAK4 MSD degradation in OCI-LY10 at 4 hrs: DC50
# T1 sequence (Q9NWZ3 whole entry): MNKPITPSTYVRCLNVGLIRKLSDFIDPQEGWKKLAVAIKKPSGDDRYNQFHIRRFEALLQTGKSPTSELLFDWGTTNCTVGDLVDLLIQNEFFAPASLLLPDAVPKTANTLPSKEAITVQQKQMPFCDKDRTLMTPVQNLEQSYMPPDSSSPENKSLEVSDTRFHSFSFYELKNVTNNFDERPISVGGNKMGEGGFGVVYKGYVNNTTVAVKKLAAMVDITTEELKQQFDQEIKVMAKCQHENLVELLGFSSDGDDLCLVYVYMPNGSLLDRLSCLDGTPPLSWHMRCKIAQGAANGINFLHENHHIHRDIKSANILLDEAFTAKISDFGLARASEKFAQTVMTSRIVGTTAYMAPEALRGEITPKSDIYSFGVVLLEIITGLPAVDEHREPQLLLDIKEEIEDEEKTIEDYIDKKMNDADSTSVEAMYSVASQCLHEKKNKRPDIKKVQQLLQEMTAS
SMILES,DC50 (IRAK4 [1]) [nM],IC50 (OCI-LY10) [nM],DC50 (IRAK4 [2]; [5]) [nM],DC50 (IRAK4 [2]; [6]) [nM],DC50 (IRAK4 [3]) [nM],IC50 (IRAK4 [3]) [nM],IC50 (TNFα) [nM],DC50 (IRAK4 [4]; [7]) [nM],IC50 (IL-6) [nM],DC50 (IRAK4 [4]; [8]) [nM],DC50 (IRAK4 [2]; [9]) [nM]
Cn1c(=O)n(C2CCC(=O)NC2=O)c2cccc(CCCOCCOCCNC(=O)[C@H]3CC[C@H](n4cc(NC(=O)c5coc(-c6ccnc(NCC7CC7)c6)n5)c(C(F)F)n4)CC3)c21 (stereo partly shown) [I-1],100 to 500,50 to 100,< 10,10 to 100,100 to 500,–,–,–,–,–,–
O=C1CCC(n2c(=O)oc3cc(CCCOCCOCCNC[C@H]4CC[C@H](n5cc(NC(=O)c6coc(-c7ccnc(NCC8CC8)c7)n6)c(C(F)F)n5)CC4)ccc32)C(=O)N1 (stereo partly shown) [I-3],< 50,> 1000,< 10,–,–,< 50,–,–,–,–,–
CN(C[C@H]1CN(CCCc2ccc3c(c2)n(C)c(=O)n3C2CCC(=O)NC2=O)CCO1)C(=O)[C@H]1CC[C@H](n2cc(NC(=O)c3coc(-c4ccnc(NCC5CC5)c4)n3)c(C(F)F)n2)CC1 (stereo partly shown) [I-18],100 to 500,50 to 100,< 10,–,–,< 50,100 to 500,–,–,–,–
"CC(C)c1nn([C@H]2CC[C@H](CN(C)C[C@@H]3CN(CCCc4ccc5c(c4)n(C)c(=O)n5C4CCC(=O)NC4=O)CCO3)CC2)cc1NC(=O)c1coc(-c2ccnc(NCC3CC3)c2)n1 (stereo partly drawn) [I-94, 2-[2-(Cyclopropylmethylamino)-4-pyridyl]-N-[1-[4-[[[(2R)-4-[3-[1-(2,6-dioxo-3-piperidyl)-3-methyl-2-oxo-benzimidazol-5-yl]propyl]morpholin-2-yl]methyl-methyl-amino]methyl]cyclohexyl]-3-isopropyl-pyrazol-4-yl]oxazole-4-carboxamide]",100 to 500,–,–,–,100 to 500,–,–,–,–,–,–
Cn1c(=O)n(C2CCC(=O)NC2=O)c2cccc(CCCOCCOCCNC[C@H]3CC[C@H](n4cc(NC(=O)c5coc(-c6ccnc(NCC(F)(F)F)c6)n5)c(C(N)=O)n4)CC3)c21 (stereo partly shown) [I-6],< 50,> 1000,< 10,–,–,< 50,> 1000,–,–,–,–
O=C1CCC(n2c3ccccc3c3c(CCCOCCOCCNC[C@H]4CC[C@H](n5cc(NC(=O)c6coc(-c7ccnc(NCC8CC8)c7)n6)c(C(F)F)n5)CC4)ccnc32)C(=O)N1 (stereo partly shown) [I-92],500 to 1000,100 to 500,10 to 100,–,100 to 500,–,–,–,–,–,–
CN(CCCOCCCc1cccc2c1n(C)c(=O)n2C1CCC(=O)NC1=O)C[C@H]1CC[C@H](n2cc(NC(=O)c3cnn4ccc(N5CCCCC5)nc34)c(C(F)F)n2)CC1 (stereo partly shown) [I-419],–,> 1000,10 to 100,–,–,–,–,< 10,1 to 10,–,–
Cn1c(=O)n(C2CCC(=O)NC2=O)c2cccc(CCC3CC4(CCN(C[C@H]5CC[C@H](n6cc(NC(=O)c7cnn8ccc(N9C[C@H]%10C[C@@H]9CO%10)nc78)c(C(F)F)n6)CC5)CC4)C3)c21 (stereo partly shown) [I-486],–,> 1000,–,–,–,–,–,–,< 1,< 10,< 10
CN(CC1CCN(c2cccc3c2C(=O)N(C2CCC(=O)NC2=O)C3=O)CC1)C[C@H]1CC[C@H](n2cc3cc(NC(=O)c4cccc(C(F)(F)F)n4)c(C(C)(C)O)cc3n2)CC1 (stereo partly shown) [I-317],–,> 1000,10 to 100,10 to 100,–,–,–,10 to 100,1 to 10,–,–
Cn1c(=O)n(C2CCC(=O)NC2=O)c2cccc(CCN3CC4(CCN(C(=O)[C@H]5CC[C@H](n6cc(NC(=O)c7cnn8ccc(N9C[C@H]%10C[C@@H]9CO%10)nc78)c(C(F)F)n6)CC5)CC4)C3)c21 (stereo partly shown) [I-420],–,< 50,< 10,–,–,–,–,< 10,< 1,–,–
Cn1c(=O)n(C2CCC(=O)NC2=O)c2cccc(C#CCC3CCN(C[C@H]4CC[C@H](C5N=C(NC(=O)c6cnn7ccc(N8CCOC(C)(C)C8)cc67)C(C(F)F)=N5)CC4)CC3)c21 (stereo partly shown) [I-532],–,> 1000,–,–,–,–,–,–,1 to 10,10 to 100,10 to 100
C[C@@H]1CN(c2ccn3ncc(C(=O)Nc4cn([C@H]5CC[C@H](C(=O)N6CCC7(CC6)CN(CCCc6cccc8c6n(C)c(=O)n8C6CCC(=O)NC6=O)C7)CC5)nc4C(F)F)c3n2)C[C@H](C)O1 (stereo partly shown) [I-480],–,> 1000,–,–,–,–,–,–,< 1,< 10,10 to 100
CN(C[C@@H]1CN(Cc2cccc3c2n(C)c(=O)n3C2CCC(=O)NC2=O)CCO1)C[C@H]1CC[C@H](n2cc(NC(=O)c3cnn4ccc(N5C[C@H]6C[C@@H]5CO6)nc34)c(C(F)F)n2)CC1 (stereo partly shown) [I-411],–,> 1000,> 1000,–,–,–,–,10 to 100,< 1,–,–
Cn1c(=O)n(C2CCC(=O)NC2=O)c2cccc(CCCOC3CCN(C[C@H]4CC[C@H](n5cc(NC(=O)c6cnn7ccc(N8CCCOCC8)nc67)c(C(F)F)n5)CC4)CC3)c21 (stereo partly shown) [I-515],–,> 1000,–,–,–,–,–,–,< 1,< 10,< 10
Cn1c(=O)n(C2CCC(=O)NC2=O)c2cccc(CC(=O)N3CC4(CCN(C[C@H]5CC[C@H](n6cc(NC(=O)c7cnn8ccc(N9C[C@H]%10C[C@@H]9CO%10)nc78)c(C(F)F)n6)CC5)CC4)C3)c21 (stereo partly shown) [I-421],–,> 1000,< 10,–,–,–,–,< 10,< 1,–,–
Cn1c(=O)n(C2CCC(=O)NC2=O)c2cccc(CCC(=O)C3CC4(CCN(C[C@H]5CC[C@H](n6cc(NC(=O)c7cnn8ccc(N9C[C@H]%10C[C@@H]9CO%10)nc78)c(C(F)F)n6)CC5)CC4)C3)c21 (stereo partly shown) [I-415],–,> 1000,< 10,–,–,–,–,< 10,< 1,–,–
CN(CCCc1cccc2c1n(C)c(=O)n2C1CCC(=O)NC1=O)C(=O)c1ccc(N2CCC(n3cc(NC(=O)c4cnn5ccc(N6C[C@H]7C[C@@H]6CO7)nc45)c(C(F)F)n3)CC2)cc1 (stereo partly shown) [I-479],–,> 1000,–,–,–,–,–,–,10 to 100,100 to 1000,100 to 1000
